From ChEMBL document CHEMBL1130954, “Design and synthesis of analogs of vitamin E: antiproliferative activity against human breast adenocarcinoma cells” (Bioorg Med Chem Lett, 1998)

Tested on: MCF7
Test: Compound was tested for antiproliferative activity against human breast cancer cell line MCF-7 in MTT assay
Type: functional, cell-based

SMILES | IC50 [µM]
CCCCC(=O)OCC1(C)CCc2c(C)c(OC(=O)[C@@H](N)CCCCN)c(C)c(C)c2O1 (some centres undefined) | 15
Cc1c(C)c2c(c(C)c1OC(=O)[C@@H](N)CCCCN)CCC(C)(COC(=O)CCC(C)[C@H]1CC[C@H]3[C@@H]4[C@H](O)C[C@@H]5C[C@H](O)CC[C@]5(C)[C@H]4C[C@H](O)[C@]13C)O2 (some centres undefined) | 4
Cc1c(C)c2c(c(C)c1O)CCC(C)(C(=O)O)O2 (centres undefined) [TROLOX] | 1460
Cc1c(C)c2c(c(C)c1OC(=O)CCC(=O)O)CC[C@@](C)(CCC[C@H](C)CCC[C@H](C)CCCC(C)C)O2 [(+)-ALPHA-TOCOPHERYL SUCCINATE] | > 368
CC(=O)Oc1c(C)c(C)c2c(c1C)CC[C@@](C)(CCC[C@H](C)CCC[C@H](C)CCCC(C)C)O2 | > 500
Cc1c(C)c2c(c(C)c1O)CC[C@@](C)(CCC[C@H](C)CCC[C@H](C)CCCC(C)C)O2 [ALPHA-TOCOPHEROL] | 329
Cc1c(C)c2c(c(C)c1OC(=O)[C@@H](N)CCCCN)CCC(C)(CO)O2 (some centres undefined) | 194
CCCCCOCC1(C)CCc2c(C)c(OC(=O)[C@@H](N)CCCCN)c(C)c(C)c2O1 (some centres undefined) | 22
Cc1c(C)c2c(c(C)c1OC(=O)[C@@H](N)CCCCN)CC[C@@](C)(CCC[C@H](C)CCC[C@H](C)CCCC(C)C)O2 | 12
